Reference: patent EP4567034A1 (Korea Institute of Science and Technology, priority 2022, dated 2024)

Experiments:
S1P1 receptor [1] = target: T1, S1P1 receptor (Homo sapiens, UniProt P21453); experiment: S1P1 β-arrestin recruitment assay in S1P1 overexpressing cell line (DiscoverX), luminescence; assay type: cell-based
S1P1 receptor [2] = target: T1, S1P1 receptor; experiment: S1P1 receptor internalization (endosome formation) assay in S1P1 overexpressing cell line (DiscoverX), luminescence; assay type: cell-based
[3] = S1P1 overexpressing cell line, β-arrestin recruitment, luminescence, read-out: β-arrestin EC50
[4] = S1P1 overexpressing cell line, endosome formation by internalization, luminescence, read-out: Internalization EC50

T1 sequence (P21453 whole entry): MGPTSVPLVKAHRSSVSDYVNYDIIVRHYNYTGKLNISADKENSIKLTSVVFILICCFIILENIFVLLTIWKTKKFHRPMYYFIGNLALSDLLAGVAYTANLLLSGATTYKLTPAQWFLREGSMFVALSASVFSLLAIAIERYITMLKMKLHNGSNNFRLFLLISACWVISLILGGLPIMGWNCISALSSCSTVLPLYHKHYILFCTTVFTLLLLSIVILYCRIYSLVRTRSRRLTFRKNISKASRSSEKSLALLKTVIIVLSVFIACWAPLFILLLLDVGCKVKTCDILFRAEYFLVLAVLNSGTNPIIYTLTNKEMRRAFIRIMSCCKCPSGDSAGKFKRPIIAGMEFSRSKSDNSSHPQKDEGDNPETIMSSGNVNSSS

`COC(=O)C1CCN(Cc2ccc(-c3cnc(-c4ccc(OC(C)C)c(Cl)c4)[se]3)cc2)C1` (stereo not shown) [Compound 33, Methyl 1-(4-(2-(3-chloro-4-isopropoxyphenyl)-1,3-selenazole-5-yl)benzyl)pyrrolidine-3-carboxylate] gave an EC50 (S1P1 receptor [1]) of 1.79 nM and an EC50 (S1P1 receptor [2]) of 11.9 nM.
Compound `COC(=O)C1CN(Cc2ccc(-c3cnc(-c4ccc(C(C)(C)C)cc4)[se]3)cc2)C1` [Compound 1, Methyl 1-(4-(2-(4-tert-butylphenyl)-1,3-selenazole-5-yl)benzyl)azetidine-3-carboxylate] has an EC50 (S1P1 receptor [1]) of 11.1 nM and an EC50 (S1P1 receptor [2]) of 173 nM.
`COC(=O)C1CCN(Cc2ccc(-c3cnc(-c4ccc(C(C)(C)C)cc4)[se]3)cc2)CC1` [Compound 32, Methyl 1-(4-(2-(4-tert-butylphenyl)-1,3-selenazole-5-yl)benzyl)piperidine-4-carboxylate] was tested, and the EC50 (S1P1 receptor [1]; [3]) was 580 nM and the EC50 (S1P1 receptor [2]; [4]) was 519 nM.
In the case of `O=C(O)C1CN(Cc2ccc(-c3cnc(-c4ccccn4)[se]3)cc2)C1` [Compound 27, Sodium 1-(4-(2-(pyridine-2-yl)-1,3-selenazole-5-yl)benzyl)azetidine-3-carboxylate], the EC50 (S1P1 receptor [1]; [3]) is reported as greater than 1000 nM and the EC50 (S1P1 receptor [2]; [4]) is reported as greater than 1000 nM.
Work on `COC(=O)C1CN(Cc2ccc(-c3ncc(-c4ccc(OC(C)C)c(Cl)c4)[se]3)cc2)C1` [Compound 41, Methyl 1-(4-(5-(3-chloro-4-isopropoxyphenyl)-1,3-selenazole-2-yl)benzyl)azetidine-3-carboxylate] yielded an EC50 (S1P1 receptor [1]) of 0.9 nM and an EC50 (S1P1 receptor [2]) of 9.52 nM.
`COC(=O)C1CN(Cc2ccc(-c3cnc(-c4ccccc4OC(C)C)[se]3)cc2)C1` [Compound 23, Methyl 1-(4-(2-(2-isopropoxyphenyl)-1,3-selenazole-5-yl)benzyl)azetidine-3-carboxylate] was tested, and the EC50 (S1P1 receptor [1]; [3]) was greater than 1000 nM and the EC50 (S1P1 receptor [2]; [4]) was greater than 1000 nM.
For `CCOC(=O)C1CN(Cc2ccc(-c3cnc(-c4ccccc4OC(C)C)[se]3)cc2)C1` [Compound 25, Ethyl 1-(4-(2-(2-isopropoxyphenyl)-1,3-selenazole-5-yl)benzyl)azetidine-3-carboxylate], the EC50 (S1P1 receptor [1]; [3]) was 252 nM and the EC50 (S1P1 receptor [2]; [4]) was 347 nM.
`CCOC(=O)C1CN(Cc2ccc(-c3cnc(-c4ccc(C(C)(C)C)cc4)[se]3)cc2)C1` [Compound 3, Ethyl 1-(4-(2-(4-tert-butylphenyl)-1,3-selenazole-5-yl)benzyl)azetidine-3-carboxylate] gave an EC50 (S1P1 receptor [1]) of 23.6 nM and an EC50 (S1P1 receptor [2]) of 116 nM.
`COC(=O)C1CN(Cc2ccc(-c3cnc(-c4ccc(OC(C)C)cc4)[se]3)cc2)C1` [Compound 18, Methyl 1-(4-(2-(4-isopropoxyphenyl)-1,3-selenazole-5-yl)benzyl)azetidine-3-carboxylate] gave an EC50 (S1P1 receptor [1]) of 3.24 nM and an EC50 (S1P1 receptor [2]) of 9.26 nM.
With `COC(=O)C1CN(Cc2ccc(-c3cnc(-c4cccnc4)[se]3)cc2)C1` [Compound 28, Methyl 1-(4-(2-(pyridine-3-yl)-1,3-selenazole-5-yl)benzyl)azetidine-3-carboxylate] the EC50 (S1P1 receptor [1]; [3]) was greater than 1000 nM and the EC50 (S1P1 receptor [2]; [4]) was greater than 1000 nM.
In the case of `CC(C)Oc1cccc(-c2ncc(-c3ccc(CN4CC(C(=O)O)C4)cc3)[se]2)c1` [Compound 22, 1-(4-(2-(3-isopropoxyphenyl)-1,3-selenazole-5-yl)benzyl)azetidine-3-carboxylic acid], the EC50 (S1P1 receptor [1]) is reported as 8.59 nM and the EC50 (S1P1 receptor [2]) is reported as 97.4 nM.
With `COC(=O)C1CN(Cc2ccc(-c3cnc(-c4ccc(OC(C)C)c(Cl)c4)[se]3)cc2)C1` [Compound 12, Methyl 1-(4-(2-(3-chloro-4-isopropoxyphenyl)-1,3-selenazole-5-yl)benzyl)azetidine-3-carboxylate] the EC50 (S1P1 receptor [1]) was 1.41 nM and the EC50 (S1P1 receptor [2]) was 1.48 nM.
`CCOC(=O)C1CN(Cc2ccc(-c3cnc(-c4ccc(OC(C)C)c(C(F)(F)F)c4)[se]3)cc2)C1` [Compound 11, Ethyl 1-(4-(2-(4-isopropoxy-3-(trifluoromethyl)phenyl)-1,3-selenazole-5-yl)benzyl)azetidine-3-carboxylate] was tested, and the EC50 (S1P1 receptor [1]) was 1.49 nM and the EC50 (S1P1 receptor [2]) was 12.6 nM.
For `CCOC(=O)C1CN(Cc2ccc(-c3cnc(-c4ccc(OC(C)C)cc4)[se]3)cc2)C1` [Compound 20, Ethyl 1-(4-(2-(4-isopropoxyphenyl)-1,3-selenazole-5-yl)benzyl)azetidine-3-carboxylate], the EC50 (S1P1 receptor [1]) was 3.05 nM and the EC50 (S1P1 receptor [2]) was 119 nM.
